The source of these data is patent publication US20250114456A1, “ENHANCED IMMUNOTHERAPEUTIC METHOD COMPRISING COMBINED ADMINISTRATION OF PHOTODYNAMIC / RADIOTHERAPEUTIC COMPOUNDS AND IMMUNOTHERAPEUTIC AGENTS” (Theralase Technologies, Inc., priority 2023, published 2025).

One experiment has as its system VISTA and PDL1/L2. The settings on record: multiple preclinical models; cited from earlier work.
For experiment [1], the system named is CD47 expression in A549 human Non-Small Cell Lung Cancer cells. The experiment can be described thus: CD47 expression by flow cytometry, A549 cells, with or without radiation. The format is cell-based. The settings on record: 4 hours, overnight incubation, FIG. 6. On the procedure: A549 human Non-Small Cell Lung Cancer (“NSCLC”) cells were treated with RUVIDAR or RUTHERRIN for four (4) hours, then cells were treated with radiation or left untreated and then incubated further overnight before cell collection and analysis of CD47 expression by flow cytometry.
In general terms: A flow cytometer gives signals particle by particle.

The test system of a further experiment is A549 human NSCLC cells. The experiment can be described thus: ATP secretion quantification in supernatant, A549 cells, with radiation. The format is cell-based. The settings on record: 4 hours, combined with radiation, supernatant 1 hour after, FIG. 8. On the procedure: A549 human NSCLC cells were treated with RUVIDAR or RUTHERRIN for four (4) hours, then cells were treated with radiation or left untreated, and then incubated further for one (1) hour before collection of supernatant for ATP secretion quantification.

For `C[C@@H](O)[C@H](NC(=O)N[C@@H](CC(N)=O)c1nc([C@H](N)CO)no1)C(=O)O` [CA-170], the anti-tumor activity entry in the experiment on VISTA and PDL1/L2 is “demonstrated anti-tumor activity in multiple preclinical models”.

Consider `Cc1ccnc(-c2cc(C)ccn2)c1.Cc1ccnc(-c2cc(C)ccn2)c1.[Cl-].[Cl-].[Ru+2].c1csc(-c2ccc(-c3ccc(-c4nc5c6cccnc6c6ncccc6c5[nH]4)s3)s2)c1` [RUVIDAR, Ru(4,4′-dimethyl-2,2′-bipyridine)2(2-(2′,2″:5″,2′-terthiophene)-imidazo[4,5-f][1,10]phenanthroline) chloride], for which the results for the CD47 expression entry in experiment [1] (radiation treatment added) and in experiment [1] (without radiation treatment) were “significantly reduced expression” and “downregulated CD47 expression”, respectively. In the experiment on A549 human NSCLC cells, the ATP release entry is given as “significantly increased ATP release”.
